{"source": "patent US10973912B2", "about": "“Treatment for myopathy” (Children's Medical Center Corporation, priority 2015, dated 2021)", "key": {"phosphorylated Stat3": {"system": "phosphorylated Stat3", "assay": "Western blot of phosphorylated Stat3 at 5 dpf", "format": "in vivo, zebrafish (Danio rerio)", "details": "10 μg/mL, normalized to β-Actin", "experimental": "In two independent experiments, two pools of 20 larvae from heterozygous ryr1b matings were treated with DMSO or with one of three different concentrations of NIF (1.0-100.0 μg/mL) at 1 dpf and evaluated in terms of touch-evoked escape behaviors at 5 dpf (n=40). Following phenotypic scoring, all living embryos were genotyped using three-primer genomic PCR. Swimming scores for larvae genotype-confirmed as ryr1b homozygous mutants are shown as a percentage of the total number of living larvae in each dose category: 1=poor swimming; 2 or 3=moderate or wild-type swimming. NIF improved mobility of ryr1b mutants at a dose of 10 μg/mL. […] Phospho-Stat3 band intensities were normalized to β-Actin control bands and quantified in Image J (NIH).\nWestern blotting was performed on groups of 50-100 wild-type or mutant zebrafish larvae at 5 dpf. […] Phospho-Stat3 band intensities were normalized to control bands and quantified in Image J (NIH).\nTo determine whether zebrafish stat3 is differentially expressed in the wild-type and Ryr1-deficient background, quantitative real-time RT-PCR was performed using fluorescently tagged Taqman probes."}, "ryr1b zebrafish": {"system": "ryr1b zebrafish", "assay": "Activity monitoring (Noldus Daniovision), spontaneous swimming at 20 dpf", "format": "in vivo, zebrafish (Danio rerio)", "details": "long-term treatment", "experimental": "In FIG. 10A, body angles of ryr1b mutants after 20 days of NIF treatment (10.0 μg/mL) are corrected and statistically indistinguishable from wild-type controls. […] Angles were measured by first drawing/extending straight lines between the eyes of the larva as well as along the midline of the trunk (shown by dotted red lines). The angle of intersection was determined using Adobe Photoshop CS3 software (WT-DMSO: 179.1±0.9°, n=6; WT-NIF: 176.8±1.1°, n=6; ryr1b-DMSO: 142.6±6.2°, n=11; ryr1b-NIF: 174.4±2.0°, n=4). Significance was determined by a one-way ANOVA (F=13.60, P<0.0001), followed by pairwise Tukey's HSD post hoc tests. […] Significance was determined by a one-way ANOVA (F=10.03, P=0.0009), followed by pairwise Tukey's HSD post hoc tests. […]\nZebrafish behavioral parameters were defined using the Noldus Daniovision activity monitoring system. […] Swimming behaviors were recorded over the entire 2.0-hour period with an infrared light source. […] Behavioral parameters recorded include frequency, mean velocity, total distance, and cumulative duration of movement, and reflect the average of all larvae in an experimental group.\nNext, to determine if long-term NIF treatment affects ryr1b motor functions, spontaneous swimming behaviors of 20 dpf larvae were quantified using the Noldus Daniovision. […]"}, "wild-type mouse myotubes": {"system": "wild-type mouse myotubes", "assay": "Calcium imaging, caffeine dose response of depolarization-induced calcium release", "format": "cell-based, mouse (C57BL/6N)", "details": "wild-type background, cultured 5 days with compound", "experimental": "(§1) Tetanic forces were measured following stimulation with 9 biphasic, 200 μs square-wave pulses at 300 Hz (WT-DMSO: 45.6±4.2 kPa, n=5; WT-NIF: 52.8±4.1 kPa, n=5; ryr1b-DMSO: 11.4±1.3 kPa, n=7; ryr1b-NIF: 25.4±4.0 kPa, n=7). Significance was determined by a one-way ANOVA (F=29.61, P<0.0001), followed by pairwise Tukey's HSD post hoc tests. […] Non-linear regression data of curves were not statistically different, as determined by an extra sum-of-squares F test (P=1.0).\nPrimary myoblasts from C57BL/6N mice were isolated and differentiated as described previously^39. Calcium imaging was performed 5 days after differentiation in myotubes loaded with 3 μM Fluo-4-AM (Life Technologies). Myotubes were imaged in imaging buffer (125 mM NaCl, 5 mM KCl, 2 mM CaCl2, 1.2 mM MgSO4, 6 mM glucose, 2 mM Ca^2+, 25 mM Hepes/Tris, pH 7.4) at 490-500 nm with a Stanford Photonics 10 bit digital intensified CCD using a DG4 multi-wavelength light source. Fluorescent emission at 510 was acquired and analyzed using QED Imaging software (QED Software, Pittsburgh, Pa., USA) from regions of interest within each myotube at 30 frames per second. Sensitivity to K^+-depolarization and caffeine-activation were determined by a 5 second perfusion with 5-6 volumes of KCl (10 mM to 60 mM) or caffeine (3 mM to 40 mM). […]"}, "ryr1b skeletal muscles": {"system": "ryr1b skeletal muscles", "assay": "Tetanic force per cross-sectional area in larvae at 5 dpf", "format": "in vivo, zebrafish (Danio rerio)", "details": "WT, n=5, 9 biphasic 200 μs pulses at 300 Hz", "experimental": "as §1\nRyr1b mutants display weaker muscle contractions than wild-type clutchmates as early as 2 dpf^30. To investigate whether […] affects contractile strength in zebrafish, ryr1b mutants and unaffected controls were treated with the compound for several days. At 5 dpf, electrophysiological studies were performed with the help of Dr. Jeffrey Widrick."}}}
{"compound": "O=C(N/N=C/c1ccc([N+](=O)[O-])o1)c1ccc(O)cc1", "note": "[Nifuroxazide]", "values": [{"measurement": "levels of phosphorylated Stat3 protein", "setting": "phosphorylated Stat3", "result": "larger decrease in ryr1b mutants than in unaffected controls"}, {"measurement": "distance travelled during 2.0-hour period", "setting": "ryr1b zebrafish", "result": "large and robust increase on the distance travelled by ryr1b zebrafish"}, {"measurement": "calcium release in response to caffeine", "setting": "wild-type mouse myotubes", "result": "only very modest increases in calcium release"}, {"measurement": "tetanic force per cross-sectional area, wild-type larvae", "setting": "ryr1b skeletal muscles", "result": "52.8±4.1", "unit": "kPa"}]}
